ChEMBL document CHEMBL4513161, “CO-ADD screening of MMV (CH) - Pandemic Response Box” (2021)
Values after ≈ are worked out from the molar mass of the structure shown.

Experiments:
Candida albicans = assay: microbe, parasite or virus in culture; conditions: ATCC 90028, ASSAY_TEST Inhibition of Fungal Growth, detection method Absorption (OD530), plate type 384well, NBS, CORNING #3640
Description: Antifungal activity against Candida albicans ATCC 90028 (CO-ADD:FG_001); MIC in YNB media using NBS plates, by OD630

Staphylococcus aureus = assay: microbe, parasite or virus in culture; conditions: ATCC 43300, 18 h, ASSAY_TEST Inhibition of Bacterial Growth, detection method Absorption (OD600), MEDIA CAMHB, plate type 384well, NBS, CORNING #3640
Description: Antibacterial activity against Staphylococcus aureus MRSA ATCC 43300 (CO-ADD:GP_020); MIC in CAMBH media, using NBS plates, by OD(600)

Pseudomonas aeruginosa [1] = assay: Antibacterial activity against Pseudomonas aeruginosa PAO397 [PAO1 d(mexAB-oprM) d(mexCD-oprJ) d(mexEF-oprN) d(mexJKL) d(mexXY) d(opmH)] (CO-ADD:GN_211); MIC in CAMBH media using NBS plates, by OD(600); assay type: functional; conditions: ASSAY_TEST Inhibition of Bacterial Growth, detection method Absorption (OD600), MEDIA CAMHB, plate type 384well, CORNING #3640, time 18 hr
Acinetobacter baumannii = assay: microbe, parasite or virus in culture; conditions: ATCC 19606, 18 h, ASSAY_TEST Inhibition of Bacterial Growth, detection method Absorption (OD600), MEDIA CAMHB, plate type 384well, NBS, CORNING #3640
Description: Antibacterial activity against Acinetobacter baumannii ATCC 19606 (CO-ADD:GN_034); MIC in CAMBH media using NBS plates, by OD600

Pseudomonas aeruginosa [2] = assay: microbe, parasite or virus in culture; conditions: ATCC 27853, 18 h, ASSAY_TEST Inhibition of Bacterial Growth, detection method Absorption (OD600), MEDIA CAMHB, plate type 384well, NBS, CORNING #3640
Description: Antibacterial activity against Pseudomonas aeruginosa ATCC 27853 (CO-ADD:GN_042); MIC in CAMBH media using NBS plates, by OD(600)

Escherichia coli = assay: microbe, parasite or virus in culture; conditions: ATCC 25922, 18 h, ASSAY_TEST Inhibition of Bacterial Growth, detection method Absorption (OD600), MEDIA CAMHB, plate type 384well, NBS, CORNING #3640
Description: Antibacterial activity against Escherichia coli ATCC 25922 (CO-ADD:GN_001); MIC in CAMBH media using NBS plates, by OD(600)

Klebsiella pneumoniae = assay: microbe, parasite or virus in culture; conditions: ATCC 700603, 18 h, ASSAY_TEST Inhibition of Bacterial Growth, detection method Absorption (OD600), MEDIA CAMHB, plate type 384well, NBS, CORNING #3640
Description: Antibacterial activity against Klebsiella pneumoniae MDR ATCC 70063 (CO-ADD:GN_003); MIC in CAMBH media using NBS plates, by OD(600)

HEK293 = assay: cells; assay type: functional, Homo sapiens, ATCC CRL1573; conditions: Homo sapiens, ATCC CRL1573, HEK293; ASSAY_TEST Inhibition of Cell Viability; detection method Resazurin; Fluorescence (ex560/em590); MEDIA DMEM with 10% FBS; plate type 384well; TC; CORNING #3712; time 18 hr; read-out: CC50

Description for Cryptococcus neoformans: Antifungal activity against Cryptococcus neoformans H99 ATCC 208821 (CO-ADD:FG_002); MIC in YNB media using NBS plates, by Resazurin OD(600-570)

Compound | MIC (Candida albicans) [µM] | MIC (Staphylococcus aureus) [µM] | MIC (Pseudomonas aeruginosa [1]) [µM] | MIC (Acinetobacter baumannii) [µM] | MIC (Pseudomonas aeruginosa [2]) [µM] | MIC (Escherichia coli) [µM] | MIC (Cryptococcus neoformans) [µM] | MIC (Klebsiella pneumoniae) [µM] | CC50 (HEK293) [µM]
COc1ccc2c(c1)cc(CNC(=O)c1cc3ccccc3o1)n2CC(=O)O | > 20 | > 20 | > 20 | > 20 | > 20 | > 20 | > 20 | > 20 | > 20
CCCCc1ccc(S(=O)(=O)Nc2cc(C)on2)cc1 | > 20 | > 20 | > 20 | > 20 | > 20 | > 20 | > 20 | > 20 | > 20
Oc1cc(-c2cccc3ccccc23)[nH]n1 | > 20 | > 20 | > 20 | > 20 | > 20 | > 20 | > 20 | > 20 | > 20
O=[N+]([O-])/C(Br)=C/c1ccc(Br)o1 | 20 (≈ 5.94 µg/mL) | > 20 | > 20 | > 20 | > 20 | > 20 | 20 (≈ 5.94 µg/mL) | > 20 | > 20
C[C@H]1CC[C@]2(NC1)O[C@H]1C[C@H]3[C@@H]4CC[C@H]5C[C@@H](O)CC[C@]5(C)[C@H]4CC[C@]3(C)[C@H]1[C@@H]2C | 20 (≈ 8.31 µg/mL) | > 20 | > 20 | > 20 | > 20 | > 20 | > 20 | > 20 | > 20
C[C@H](c1cccc2ccccc12)N(C)Cc1ccccc1 | > 20 | > 20 | > 20 | > 20 | > 20 | > 20 | > 20 | > 20 | > 20
CC(C)(C)c1cccc(-c2nc3cc(C(=N)N)ccc3[nH]2)c1O | > 20 | 10 (≈ 3.08 µg/mL) | > 20 | > 20 | > 20 | > 20 | > 20 | > 20 | > 20
O=C(NNC(=S)Nc1ccc(Cl)cc1)c1ccncc1 | > 20 | > 20 | > 20 | > 20 | > 20 | > 20 | > 20 | > 20 | > 20
CC(C)c1ccc(COc2cccc(-c3cc([S+](C)[O-])c(C#N)c(=O)[nH]3)c2)cc1 (stereo not given) | > 20 | > 20 | > 20 | > 20 | > 20 | > 20 | > 20 | > 20 | > 20
O=C(N[C@H](Cc1cccc2ccccc12)C(=O)NCCc1c[nH]cn1)C1Cc2ccccc2C1 | > 20 | > 20 | > 20 | > 20 | > 20 | > 20 | > 20 | > 20 | > 20
O=C(NCc1ncc(C(F)(F)F)cc1Cl)c1c(Cl)cccc1Cl | > 20 | > 20 | > 20 | > 20 | > 20 | > 20 | > 20 | > 20 | > 20
CCCCCCC1c2ccc(O)cc2Oc2cc(O)ccc21 | > 20 | > 20 | > 20 | > 20 | > 20 | > 20 | > 20 | > 20 | > 20
C[C@H]1[C@@H](c2cccc(C(F)(F)F)c2)OC(=O)N1C(=O)NCc1cncc2ccccc12 | > 20 | > 20 | > 20 | > 20 | > 20 | > 20 | > 20 | > 20 | > 20
O=C(CCc1ccc2c(c1)OCO2)NCc1ccc(-c2ccccc2F)cc1 | > 20 | > 20 | > 20 | > 20 | > 20 | > 20 | > 20 | > 20 | > 20
CCC(C)(C)c1ccc(CC(C)CN2C[C@@H](C)O[C@@H](C)C2)cc1 (stereo not given in full) | 2.5 (≈ 0.794 µg/mL) | > 20 | > 20 | > 20 | > 20 | > 20 | > 20 | > 20 | > 20
CC(C)(C)c1ccc(C(=O)NC(=O)N2CCCc3ccccc32)cc1 | > 20 | > 20 | > 20 | > 20 | > 20 | > 20 | > 20 | > 20 | > 20
O=C(Nc1[nH]c(=O)ncc1F)c1ccccc1 | > 20 | > 20 | > 20 | > 20 | > 20 | > 20 | > 20 | > 20 | > 20
CNc1nc(=O)[nH]cc1F | > 20 | > 20 | > 20 | > 20 | > 20 | > 20 | > 20 | > 20 | > 20
Cc1cc(NS(=O)(=O)c2ccc(-c3ccc(F)cc3F)cc2)no1 | > 20 | > 20 | > 20 | > 20 | > 20 | > 20 | > 20 | > 20 | > 20
OB1OCc2c1ccc(Cl)c2F | 10 (≈ 1.86 µg/mL) | > 20 | > 20 | > 20 | > 20 | > 20 | 20 (≈ 3.73 µg/mL) | > 20 | > 20
O=C(NC(=O)N1CCCc2ccccc21)c1ccc(Cl)cc1Cl | > 20 | > 20 | > 20 | > 20 | > 20 | > 20 | > 20 | > 20 | > 20
Clc1cc(Cl)c2c(c1)CCc1ccccc1C2n1ccnc1 (stereo not given) | 5 (≈ 1.65 µg/mL) | 20 (≈ 6.58 µg/mL) | 20 (≈ 6.58 µg/mL) | > 20 | > 20 | > 20 | 20 (≈ 6.58 µg/mL) | > 20 | > 20
COc1cc(C2C3=C(CC(C)(C)CC3=O)Nc3ccccc3N2C(C)=O)ccc1OCc1ccccc1 (stereo not given) | > 20 | > 20 | > 20 | > 20 | > 20 | > 20 | > 20 | > 20 | > 20
CCCNc1ccc(S(=O)(=O)Nc2cc(C)on2)cc1 | > 20 | > 20 | > 20 | > 20 | > 20 | > 20 | > 20 | > 20 | > 20
O=C1c2cccc3cccc(c23)C(=O)N1CC1CO1 (stereo not given) | > 20 | 20 (≈ 5.07 µg/mL) | > 20 | > 20 | > 20 | > 20 | > 20 | > 20 | 4.49
COC(=O)Nc1nc2c(C)cccc2[nH]1 | > 20 | > 20 | > 20 | > 20 | > 20 | > 20 | > 20 | > 20 | > 20
N#C/C(=C1/SC[C@H](c2ccc(Cl)cc2Cl)S1)n1ccnc1 | 0.312 (≈ 0.111 µg/mL) | > 20 | > 20 | > 20 | > 20 | > 20 | 0.625 (≈ 0.221 µg/mL) | > 20 | > 20
O=C(/C(=C/c1ccc(Cl)cc1Cl)n1ccnc1)c1ccc(Cl)cc1 | 10 (≈ 3.78 µg/mL) | 20 (≈ 7.55 µg/mL) | > 20 | > 20 | > 20 | > 20 | 20 (≈ 7.55 µg/mL) | > 20 | 5.19
CN(C)c1[nH]c(=O)ncc1F | > 20 | > 20 | > 20 | > 20 | > 20 | > 20 | > 20 | > 20 | > 20
O=C(NC(=O)N1CCCc2ccccc21)c1cccc(Cl)c1 | > 20 | > 20 | > 20 | > 20 | > 20 | > 20 | > 20 | > 20 | > 20
